The record followed here is patent US8329730B2, “Compounds” (Glaxo Group Limited, priority 2008, dated 2012).

Structures can show the parent of a compound that is named as a salt. A value given as a limit tells only on which side of the number the result lay.

T1 sequence (P21453 whole entry): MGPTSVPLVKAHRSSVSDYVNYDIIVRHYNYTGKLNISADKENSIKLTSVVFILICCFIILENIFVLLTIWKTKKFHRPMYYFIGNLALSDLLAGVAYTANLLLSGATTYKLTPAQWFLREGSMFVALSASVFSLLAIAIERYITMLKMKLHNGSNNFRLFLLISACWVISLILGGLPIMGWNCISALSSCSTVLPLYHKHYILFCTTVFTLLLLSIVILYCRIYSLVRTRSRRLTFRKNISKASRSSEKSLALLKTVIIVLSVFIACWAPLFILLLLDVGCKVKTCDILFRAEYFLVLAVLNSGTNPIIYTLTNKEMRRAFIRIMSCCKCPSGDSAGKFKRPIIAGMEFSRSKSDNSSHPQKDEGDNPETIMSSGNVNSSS

One assay addresses T1, human S1P1 receptor (Homo sapiens, UniProt P21453).
T1 construct: expressed in transfected cells; membranes
Description: S1P1 GTPγS binding assay (and alternative method). It is filed as biochemical. The note with it: in one of the above S1P1 GTPγS binding assays (first or alternative method, RH7777 membranes). As for the experimental part:
For membrane preparations all steps were performed at 4° C. Rat hepatoma cells stably expressing the human S1P1 receptor or Rat Basophilic Leukaemia cells (RBL) stably expressing human S1P3 receptor were grown to 80% confluency before being harvested into 10 ml Phospho-Buffered Saline (PBS) and centrifuged at 1200 rpm […]. After removal of the supernatant, the pellet was re-suspended and cells were homogenised within a glass Waring blender for 2 bursts of 15 secs in 200 mls of buffer (50 mM HEPES, 1 mM leupeptin, 25 μg/ml bacitracin, 1 mM EDTA, 1 mM PMSF, 2 μM pepstatin A). The blender was plunged into ice for 5 mins after the first burst and 10-40 mins after the final burst to allow foam to dissipate. The material was then spun at 500 g for 20 mins and the supernatant spun for 36 mins at 48,000 g. The pellet was resuspended in the same buffer as above but without PMSF and pepstatin A. The material was then forced through a 0.6 mm needle, made up to the required volume, (usually ×4 the volume of the original cell pellet), aliquoted and stored frozen at −80° C. Human S1P1 rat hepatoma membranes (1.5 μg/well) were adhered to a wheatgerm agglutinin (WGA)-coated scintillation proximity assay (SPA) beads (0.125 mg/well) in assay buffer (HEPES 20 mM, MgCl2 10 mM, NaCl 100 mM and pH adjusted to 7.4 using KOH 5M, GDP 10 μM FAC (final assay concentration) and saponin 90 μg/ml FAC was also added). After 30 minutes pre-coupling on ice the bead and membrane suspension was dispensed into a white Greiner polypropylene LV384-well plate (5 μl/well), containing 0.1 μl of the compound. 5 μl/well [^35S]-GTPγS (0.5 nM final radioligand conc) made up in assay buffer was then added to agonist plates. The final assay cocktail […] was then centrifuged at 1000 rpm for 5 minutes then read immediately on a Viewlux reader. All test compounds were dissolved in DMSO at a concentration of 10 mM and were prepared in 100% DMSO using a 1 in 4 dilution step to provide 11 point dose response curves. The dilutions were transferred to the assay plates ensuring that the DMSO concentration was constant across the plate for all assays. All data was normalized to the mean of 16 high and 16 low control wells on each plate. A four parameter curve fit was then applied. S1P1 expressing RH7777 membranes (1.5 μg/well) […] were homogenised by passing through a 23G needle. These were then adhered to WGA-coated SPA beads (0.125 mg/well) in assay buffer (HEPES 20 mM, MgCl2 10 mM, NaCl 100 mM and pH adjusted to 7.4 using KOH 5M). GDP 10 μM FAC and saponin 90 μg/ml FAC were also added After 30 minutes precoupling on ice, the bead and membrane suspension was dispensed into white Greiner polypropylene LV 384-well plates (5 μl/well), containing 0.1 μl of compound. 5 μl/well [^35S]-GTPγS (0.5 nM for S1P1 or 0.3 nM for S1P3 final radioligand concentration) made in assay buffer was then added to the plates. The final assay cocktail (10.1 μl) was then sealed, spun on a centrifuge, then read immediately on a Viewlux instrument.
In general terms: Binding of GTPγS marks nucleotide exchange on a G protein.
As for `CC(C)Oc1ncc(-c2nc(-c3cccc4c(CCC(=O)O)nccc34)no2)cc1Cl` [Example 27, 3-[5-(5-{5-Chloro-6-[(1-methylethyl)oxy]-3-pyridinyl}-1,2,4-oxadiazol-3-yl)-1-isoquinolinyl]propanoic acid], the EC50 (as a rule, the concentration at which the effect is half-maximal) was not above 10 nM. As for `CC(C)Oc1ccc(-c2nc(-c3cccc4c(CCC(=O)O)nccc34)no2)cc1Cl` [Example 1, 3-[5-(5-{3-Chloro-4-[(1-methylethyl)oxy]phenyl}-1,2,4-oxadiazol-3-yl)-1-isoquinolinyl]propanoic acid lithium salt], the EC50 is not above 10 nM.

In turn, `CC(C)Oc1ccc(-c2nc(-c3cccc4c(N5CCC(C(=O)O)CC5)nccc34)no2)cc1Cl` [Example 4, 1-[5-(5-{3-Chloro-4-[(1-methylethyl)oxy]phenyl}-1,2,4-oxadiazol-3-yl)-1-isoquinolinyl]-4-piperidinecarboxylic acid lithium salt] showed an EC50 not above 10 nM. In turn, `CC(C)Oc1ccc(-c2nc(-c3cccc4c(CCC(=O)O)nccc34)no2)cc1C#N` [Example 26, 3-[5-(5-{3-Cyano-4-[(1-methylethyl)oxy]phenyl}-1,2,4-oxadiazol-3-yl)-1-isoquinolinyl]propanoic acid hydrochloride] gave an EC50 not above 10 nM. As for `CC(C)Oc1ncc(-c2nc(-c3cccc4c(CCCC(=O)O)nccc34)no2)cc1Cl` [Example 30, 4-[5-(5-{5-Chloro-6-[(1-methylethyl)oxy]-3-pyridinyl}-1,2,4-oxadiazol-3-yl)-1-isoquinolinyl]butanoic acid], the EC50 was not above 10 nM. In turn, `O=C(O)CCc1nccc2c(-c3noc(-c4ccc(OCC(F)(F)F)c(Cl)c4)n3)cccc12` [Example 24, 3-[5-(5-{3-Chloro-4-[(2,2,2-trifluoroethyl)oxy]phenyl}-1,2,4-oxadiazol-3-yl)-1-isoquinolinyl]propanoic acid hydrochloride] had an EC50 not above 10 nM.

For a further assay, the target named is T2, human S1P3 receptor (Homo sapiens, UniProt Q99500).
T2 construct: expressed in transfected cells; membranes
T2 sequence (Q99500 whole entry): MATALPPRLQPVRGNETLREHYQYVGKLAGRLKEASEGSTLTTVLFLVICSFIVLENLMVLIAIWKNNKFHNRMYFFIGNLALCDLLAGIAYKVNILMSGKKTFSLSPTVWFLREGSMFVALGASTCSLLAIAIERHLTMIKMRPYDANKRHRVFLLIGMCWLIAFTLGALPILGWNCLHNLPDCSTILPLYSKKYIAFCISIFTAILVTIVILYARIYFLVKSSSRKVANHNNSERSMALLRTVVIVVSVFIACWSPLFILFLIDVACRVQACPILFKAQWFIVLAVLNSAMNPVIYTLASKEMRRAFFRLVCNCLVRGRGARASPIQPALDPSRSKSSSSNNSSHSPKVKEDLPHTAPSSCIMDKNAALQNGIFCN
Description: S1P3 GTPγS binding assay (and alternative method). It is filed as biochemical. The conditions noted are these: in one of the above S1P3 GTPγS binding assays (first or alternative method, RBL membranes). The procedure: For membrane preparations all steps were performed at 4° C. Rat hepatoma cells stably expressing the human S1P1 receptor or Rat Basophilic Leukaemia cells (RBL) stably expressing human S1P3 receptor were grown to 80% confluency before being harvested into 10 ml Phospho-Buffered Saline (PBS) and centrifuged at 1200 rpm […]. After removal of the supernatant, the pellet was re-suspended and cells were homogenised within a glass Waring blender for 2 bursts of 15 secs in 200 mls of buffer (50 mM HEPES, 1 mM leupeptin, 25 μg/ml bacitracin, 1 mM EDTA, 1 mM PMSF, 2 μM pepstatin A). The blender was plunged into ice for 5 mins after the first burst and 10-40 mins after the final burst to allow foam to dissipate. The material was then spun at 500 g for 20 mins and the supernatant spun for 36 mins at 48,000 g. The pellet was resuspended in the same buffer as above but without PMSF and pepstatin A. The material was then forced through a 0.6 mm needle, made up to the required volume, (usually ×4 the volume of the original cell pellet), aliquoted and stored frozen at −80° C. […] The final assay cocktail (10.1 μl) was centrifuged at 1000 rpm for 5 minutes then read immediately on a Viewlux reader. […] The final assay cocktail (10.1 μl) was then sealed, spun on a centrifuge, then read immediately on a Viewlux instrument.
Consider `CC(C)Oc1ccc(-c2nc(-c3cccc4c(N5CCC(C(=O)O)CC5)nccc34)no2)cc1Cl` [Example 4, 1-[5-(5-{3-Chloro-4-[(1-methylethyl)oxy]phenyl}-1,2,4-oxadiazol-3-yl)-1-isoquinolinyl]-4-piperidinecarboxylic acid lithium salt], for which it took 3160 nM to reach a half-maximal effect (EC50).
